Laboratory results taken from paper PMC8951016, “Computational Design and Biological Evaluation of Analogs of Lupin Peptide P5 Endowed with Dual PCSK9/HMG-CoAR Inhibiting Activity” (Pharmaceutics, 2022).

How the values were obtained:
[1] = test system: LDLR on HepG2 cell surface; assay: In-cell western (ICW), LDLR on HepG2 surface in the presence of PCSK9; type: cell-based, human; conditions: PCSK9 4 μg/mL, 2 h; vs untreated control cells; p < 0.001
Description: For the experiments, a total of 3 × 10^4 HepG2 cells/well were seeded in 96-well plates and treated with 4.0 μg/mL PCSK9-WT and 4.0 μg/mL PCSK9 + peptides P5 and/or P5 analogs (50 µM) and vehicle (H2O) for 2 h at 37 °C under 5% CO2 atmosphere. Thus, cells underwent to ICW assay following conditions already optimized. See Supplementary Materials for detailed information. […]
cLex Co., Nagano, Japan). The peptides (P5, P5-Best, P-H6A, and P5-S7A) were synthe-sized by the company GeneScript (Piscataway, NJ, USA) at >95% purity. The antibody against HMG-CoAR was bought from Abcam (Cambridge, UK). […]
HMG-CoAR Aactivity Assay. […] Subsequently, the samples were mixed and the absorbance at 340 nm read by the microplate reader Synergy H1 (Winooski, VT, USA) at time 0 and 10 min. The HMG-CoAR-dependent oxidation of NADPH and the inhibition properties of peptides were measured by absorbance reduction, which is directly proportional to enzyme activ- […]
In Vitro PCSK9-LDLR Binding Assay. […] The reaction was stopped with 2.0 M sulfuric acid and the absorbance at 450nm was measured using the Synergy H1 fluorescent plate reader […]

LDL uptake, HepG2 cells [2] = assay: Fluorescent LDL uptake in HepG2 cells in the presence of PCSK9; type: cell-based, human; conditions: PCSK9 4 μg/mL, 2 h; vs untreated control cells; p < 0.05
Description: HepG2 cells (3 × 10^4/well) were seeded in 96-well plates and kept in complete growth medium for 2 days before treatment. The third day, cells were washed with PBS and then starved overnight (O/N) in DMEM without FBS and antibiotics. After starvation, they were treated with 4.0 μg/mL PCSK9 and 4.0 μg/mL PCSK9 + P5 and P5 analogs peptides (50 µM), and vehicle (H2O) for 2 h with at 37 °C under 5% CO2 atmosphere. Fluorescent LDL-uptake was finally assessed following optimized protocol. See Supplementary Materials for further details.
PBS for 1.5 h at RT. LDLR primary antibody solution (1:3000 in 5% BSA in PBS, 25 µL/well) was incubated O/N at +4 °C. […] The reaction was stopped with 2 M H2SO4 and then the absorbance at 450 nm was measured using the microplate reader Synergy H1 (Winoo-ski, VT, USA). After the read, cells were stained by adding 1 X Janus Green stain, incubat-ing for 5 min at RT. […]
Afterward 100 µL 0.5 M HCl for well were added and incubated for 10 min. After 10 sec-onds shaking, the OD at 595 nm was measured using the microplate reader Synergy H1 […]
Fluorescent LDL Uptake. […] The degree of LDL uptake was measured using the Synergy H1 fluo-rescent plate reader (Winooski, VT, USA) (excitation and emission wavelengths 540 and 570 nm, respectively). Fluorescent LDL-uptake was finally assessed following optimized […]

[3] = test system: LDLR on HepG2 cell surface; conditions: cellular level; cited from earlier work
LDL uptake, HepG2 cells [4] = conditions: cited from earlier work
[5] = target: T1, HMG-CoAR (catalytic domain) (Homo sapiens, UniProt P04035); conditions: cited from earlier work
T1 construct: finally the HMG-CoAR (cata- lytic domain) (2 µL); purchased Sigma-Aldrich
T1 sequence (P04035 426-888 limits assumed): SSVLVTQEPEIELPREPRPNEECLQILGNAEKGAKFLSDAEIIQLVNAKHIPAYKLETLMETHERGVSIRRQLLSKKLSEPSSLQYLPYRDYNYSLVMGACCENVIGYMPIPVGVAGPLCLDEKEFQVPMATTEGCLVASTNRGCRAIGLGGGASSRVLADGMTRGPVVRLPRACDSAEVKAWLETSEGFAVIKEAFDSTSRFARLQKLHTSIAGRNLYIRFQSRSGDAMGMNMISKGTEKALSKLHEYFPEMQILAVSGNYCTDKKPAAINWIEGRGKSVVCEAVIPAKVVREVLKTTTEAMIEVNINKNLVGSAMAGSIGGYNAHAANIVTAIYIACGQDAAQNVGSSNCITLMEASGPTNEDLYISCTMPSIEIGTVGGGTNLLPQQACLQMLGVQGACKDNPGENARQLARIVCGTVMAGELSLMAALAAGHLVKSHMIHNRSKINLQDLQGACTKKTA

SREBP-2 = conditions: cited from earlier work
Description: Further experiments were performed to verify the ability of these P5 analogs to modulate the LDLR pathway in HepG2 cells.

LDLR = test system: LDLR; set-up: method as in 3 sources, ref 48 = [48]; doi:10.1111/jfbc.12757; 48. Lammi C. Zanoni C. Arnoldi A. Aiello G. […] (P3), a peptide from lupin protein, absorbed by Caco-2 cells, modulates cholesterol metabolism in HepG2 cells via SREBP-1 activation J. Food B ||| ref 22 = [22]; doi:10.1016/j.jff.2017.02.009; 22. Zanoni C. Aiello G. Arnoldi A. Lammi C. Investigations on the hypocholesterolaemic activity of […] and LTFPGSAED, two peptides from lupin β-conglutin: Focus on LDLR and PCSK9 pathways J. Fu ||| ref 24 = [24]; PMID 33808034; doi:10.3390/nu13030863; 24. Lammi C. Aiello G. Bollati C. Li J. Bartolomei M. Ranaldi G. Ferruzza S. Fassi E.M.A. Grazioso G. Sambuy Y. Trans-Epithelial Transport, Metabolism, and Biological Activity Assessment of the Multi-; conditions: via compensatory upregulation of SREBP-1; cited from earlier work
PCSK9 = test system: PCSK9; set-up: method as in 3 sources, ref 49 = [49]; PMID 35011066; doi:10.3390/nu14010193; 49. Macchi C. Greco M.F. Ferri N. Magni P. Arnoldi A. Corsini A. Sirtori C.R. Ruscica M. Lammi C. Impact of Soy β-Conglycinin Peptides on PCSK9 Protein Expression in HepG2 Cells Nutrients 2021 14 193 ||| ref 22 = [22]; doi:10.1016/j.jff.2017.02.009; 22. Zanoni C. Aiello G. Arnoldi A. Lammi C. Investigations on the hypocholesterolaemic activity of […] and LTFPGSAED, two peptides from lupin β-conglutin: Focus on LDLR and PCSK9 pathways J. Fu ||| ref 24 = [24]; PMID 33808034; doi:10.3390/nu13030863; 24. Lammi C. Aiello G. Bollati C. Li J. Bartolomei M. Ranaldi G. Ferruzza S. Fassi E.M.A. Grazioso G. Sambuy Y. Trans-Epithelial Transport, Metabolism, and Biological Activity Assessment of the Multi-; conditions: 250 µM, via modulation of HNF1-α; cited from earlier work
mature PCSK9 (secreted) = test system: mature PCSK9 (secreted); set-up: method as in PMID 35011066; conditions: 250 µM, via modulation of HNF1-α; cited from earlier work

With “PCSK9: PCSK9 added at 4 µg/mL to HepG2 cells” the “decrease of LDLR level by PCSK9 alone” value [1] was 25.4 ± 1.6% and the “reduction in uptake of fluorescent LDL by PCSK9 alone” value (LDL uptake, HepG2 cells [2]) was 43.6 ± 9.6%.

In the case of TVFTSWEEYLDWV [Pep2-8], the “restoration of LDLR protein levels vs P5 analogs” value [3] is listed as “less efficient than P5 analogs” and the “restoration of hepatocyte LDL absorption vs P5 analogs” value (LDL uptake, HepG2 cells [4]) is listed as “less efficient than P5 analogs”.

In the case of “YDFYPSSTKDQQS [Peptide P3, a peptide from lupin protein]”, the “HMG-CoAR activity (P3, words)” value [5] is listed as “inhibits HMG-CoAR activity”, the “SREBP-2 activation (P3, words)” value (SREBP-2) is listed as “without SREBP-2 activation” and the “LDLR protein levels (P3, words)” value (LDLR) is listed as “increase in the LDLR protein levels”.

In the case of “YVVNPDNNEN [peptide from soybean β-Conglycinin]”, the “HMG-CoAR inhibition (YVVNPDNNEN, words)” value [5] is given as “able to inhibit the HMG-CoAR activity”, the “PCSK9 protein level (YVVNPDNNEN, words)” value (PCSK9) is given as “reduces the PCSK9 protein level” and the “PCSK9 secretion (YVVNPDNNEN, words)” value (mature PCSK9 (secreted)) is given as “reduces the PCSK9 protein level and its secretion”.
